Assay results published in patent publication US6448251B1, “Zwitterionic-fatty acid compounds having anti-inflammatory properties” (priority 1997, dated 2002).
Like-named read-outs stand apart in the source and are kept apart here.

Legend:
[1] = tested on: erythema induced by the capsaicin; experiment: Protocol II dermal irritation: capsaicin-induced erythema on human forearm, infra-red reflection; assay type: in vivo; conditions: 0.1% capsaicin on forearm of human volunteer; candidate applied when erythema appeared 10-15 minutes later; optical reflection at 818 nanometers measured 30 minutes later; baseline control 3.5, capsaicin only 0.5
Description: A new screening method was developed to make rapid assessments on the anti-inflammatory action of the new candidates. The procedure involved the use of a natural irritant, capsaicin*, which candidate is derived from crushed hot peppers (capsicum), and measuring the amount of erythema reduction by the test candidates. Inflammatory reaction are characterzed by pain and tenderness associated with swelling and redness. Most of these clinical signs are attributed to the large influx of blood into the area. Vaso-constricting agents can reduce the amount of swelling and erythema. Hydrocortisone is, in fact, assayed by its ability to blanch the skin, which is a vasoconstrictive effect. Applying a solution of 0.1% of capsaicin to the forearm of a human volunteer will produce an erythema in less than 20 minutes, usually under five minutes. The degree of erythema is measured with an infra-red detector. An infra-red beam of light at 818 nanometers is directed into the skin over the test sie and the amount of infra-red returned to the surface by reflection indicates the amount absorbed in the skin. An untreated skin area is used as a baseline control, a capsaicin treated area is used as the negative control, and a capsaicin+hydrocortisone (a known vasoconstrictor) serves as the positive control. A positive effect means the erythema induced by the capsaicin is reduced, or is eliminated, as measured by the infra-red detector. The following reults were obtained with this evaluative protocol. The capsaicin was applied to the skin, and when erythema appeared 10-15 minutes later, the test candidate agent was applied, and the optical reflection measurements were made 30 minutes later.

inflammation = conditions: cited from earlier work
[2] = intravenous injection, radiolabelled; cited from earlier work

Compound | Millivolts (reflection voltage) [1] [Millivolts] | clearance [2] | other results
CCCCCC=CCC=CCCCCCCCC(=O)OCCN1CCN(CCS(=O)(=O)O)CC1 [Compound V, Hepes-Linoleate Ester] | 3.8 |  | 
CC(=O)OCCN1CCN(CCS(=O)(=O)[O-])CC1.[Na+] [Compound VI, Hepes-Acetate Ester] | 3.0 |  | 
O=S(=O)(O)CCN1CCN(CCO)CC1 [HEPES, 4-(2-Hydroxyethyl)-1-piperazine-ethanesulfonic acid] |  | rapid clearance | anti-inflammatory effects compared with taurine (inflammation; HEPES sodium salt and the acid, Mahon et al): greater anti-inflammatory effects; half-life compared with taurine [2]: significantly longer half-life
C[C@]12CCC(=O)C=C1CC[C@@H]1[C@@H]2[C@@H](O)C[C@@]2(C)[C@H]1CC[C@]2(O)C(=O)CO [Hydrocortisone] | 5.0 |  | 
NCCS(=O)(=O)O [taurine, 2-amino ethanesulfonic acid] |  | rapid clearance | anti-inflammatory activity (inflammation; administered centrally): demonstrated anti-inflammatory activity; anti-inflammatory activity (inflammation; administered subcutaneously or interperitoneally): not
HEPES oleate, sodium salt [Compound I] | 3.7 |  | 
